Experimental data reported in patent US8785662B2, “Anilide-based compounds for preserving wood and method of use thereof” (SDS Biotech K.K., priority 2010, dated 2014).

Each molecule was assayed on Fomitopsis palustris (assay: Agar plate colony growth inhibition test on Fomitopsis palustris). Settings: 0.5 ppm in potato dextrose agar, 25° C., colony diameter on the seventh day vs control.
Type: cell-based
Procedure: Each of 1% w/v dimethylsulfoxide solution of compound A, compound B and comparative compounds 1 to 13 was prepared. A predetermined amount of the solutions diluted with dimethylsulfoxide were fully mixed in the sterilized potato dextrose agar medium, and 15 ml of the resultant medium was poured into a petri dish 90 mm in diameter and allowed to stand at room temperature. As a control, the potato dextrose agar medium added with dimethylsulfoxide only was also prepared. […] The fungi was cultivated in the petri dish at 25° C., and the diameter of the colony spread from the source of inoculum was measured on the seventh day. The growth inhibition ratio between the diameter of the test colony and that of the control was determined by the following formula as an indication of the degree of inhibition. Compounds A and B apparently had greater effects on Fomitopsis palustris compared to the compounds which had been disclosed in the past. Growth inhibition ratio (%)={(diameter of the control colony−diameter of the test colony)/diameter of the control colony}×100 [Formula 1]

Compound | Degree of inhibition on Fomitopsis palustris at 0.5 ppm
Cc1cc(C(=O)Nc2cccc(C(C)C)c2)c(C(F)(F)F)o1 [Compound A, 3′-isopropyl-5-methyl-2-trifluoromethylfuran-3-carboxylic acid anilide] | ∘ (inhibition ratio of 75% or more)
Cc1cc(C(=O)Nc2cccc(OC(C)C)c2)c(C(F)(F)F)o1 [Compound B, 3′-isopropoxy-5-methyl-2-trifluoromethylfuran-3-carboxylic acid anilide] | ∘ (inhibition ratio of 75% or more)
Cc1cc(C(=O)Nc2cccc(C(C)C)c2)c(C)o1 [compound 1, 3′-isopropyl-2,5-dimethylfuran-3-carboxylic acid anilide] | ▴ (inhibition ratio of 25 to 50%)
CCc1cccc(NC(=O)c2cc(C)oc2C)c1 [compound 2, 3′-ethyl-2,5-dimethylfuran-3-carboxylic acid anilide] | ▴ (inhibition ratio of 25 to 50%)
Cc1cccc(NC(=O)c2cc(C)oc2C)c1 [compound 3, 3′-methyl-2,5-dimethylfuran-3-carboxylic acid anilide] | x (inhibition ratio of 25% or less)
CC(C)Oc1cccc(NC(=O)c2ccccc2C(F)(F)F)c1 [compound 4, 3′-isopropoxy-2-trifluoromethyl benzoic acid anilide] | ▴ (inhibition ratio of 25 to 50%)
Cc1ccccc1C(=O)Nc1cccc(OC(C)C)c1 [compound 5, 3′-isopropoxy-2-methylbenzoic acid anilide] | ▴ (inhibition ratio of 25 to 50%)
Cc1ccccc1C(=O)Nc1cccc(C(C)C)c1 [compound 6, 3′-isopropyl-2-methylbenzoic acid anilide] | ▴ (inhibition ratio of 25 to 50%)
CC(C)c1cccc(NC(=O)c2ccoc2)c1 [compound 7, 3′-isopropyl-3-furancarboxylic acid anilide] | x (inhibition ratio of 25% or less)
Cc1occc1C(=O)Nc1cccc(C(C)C)c1 [compound 8, 3′-isopropyl-2-methylfuran-3-carboxylic acid anilide] | ▴ (inhibition ratio of 25 to 50%)
Cc1ncsc1C(=O)Nc1cccc(C(C)C)c1 [compound 9, 3′-isopropyl-4-methylthiazole-5-carboxylic acid anilide] | x (inhibition ratio of 25% or less)
Cc1nc(C)c(C(=O)Nc2cccc(C(C)C)c2)s1 [compound 10, 3′-isopropyl-2,4-dimethyl-1,3-thiazole-5-carboxylic acid anilide] | Δ (inhibition ratio of 50 to 75%)
Cc1nc(C(F)(F)F)c(C(=O)Nc2cccc(C(C)C)c2)s1 [compound 11, 3′-isopropyl-2-methyl-4-trifluoromethyl-1,3-thiazole-5-carboxylic acid anilide] | ▴ (inhibition ratio of 25 to 50%)
Cc1cc(C(=O)Nc2cccc(C(C)C)c2)c(C)[nH]1 [compound 12, 3′-isopropyl-2,5-dimethylpyrrole-3-carboxylic acid anilide] | x (inhibition ratio of 25% or less)
CC(C)c1cccc(NC(=O)c2cn(C)nc2C(F)(F)F)c1 [compound 13, 3′-isopropyl-1-methyl-3-trifluoromethylpyrazole-4-carboxylic acid anilide] | ▴ (inhibition ratio of 25 to 50%)

Each molecule was assayed on Trametes versicolor (assay: Agar plate colony growth inhibition test on Trametes versicolor, single compounds and mixtures with triazoles (Colby)). Settings: single compound 0.2 ppm, potato dextrose agar, 25° C., seventh day.
Type: cell-based
Procedure: Each of 1% w/v dimethylsulfoxide solution of compound A, compound B, cyproconazole (manufactured by Wako Pure Chemical Industries, Ltd.), epoxyconazole (manufactured by Wako Pure Chemical Industries, Ltd.) and tetraconazole (manufactured by Wako Pure Chemical Industries, Ltd.) was prepared. The solutions diluted with dimethylsulfoxide were fully mixed in the sterilized potate dextrose agar medium, and 15 ml of the resultant medium was poured into a petri dish 90 mm in diameter and allowed to stand at room temperature. As a control, the potate dextrose agar medium added with dimethylsulfoxide only was also prepared. After the medium was solidified, the mycelia was scooped with the medium from the colony of Trametes versicolor as being a typical wood-decaying fungi, which had been cultivated in advance, using a cork bailer 5 mm in diameter; and inoculated in the center of the test medium. The fungi was cultivated in the petri dish at 25° C., and the diameter of the colony spread from the source of inoculum was measured on the seventh day. The growth inhibition ratio by comparing the diameter of the test colony to that of the control was determined by the above-mentioned formula as an indication of the actual measured growth inhibition ratio. The theoretical efficacy ratio of the mixture of the active ingredients (i.e. theoretical growth inhibition ratio) was determined using the following Colby's formula (R. S. Colby, Weeds 15, 20-22 (1967)) to thereby be compared with the actual-measured efficacy ratio ([…]). […] Colby's formula: E=x+y−x·y/100 [Formula 2] E: theoretical efficacy ratio (theoretical growth inhibition ratio) represented by the ratio (%) to the control when the mixture of active compound B (concentration b) and C (concentration c) was used. x: efficacy ratio (growth inhibition ratio) represented by the ratio (%) to the control when active compound B was used at a concentration of b. y: efficacy ratio (growth inhibition ratio) represented by the ratio (%) to the control when active compound C was used at a concentration of c.

Compound | Actual measured growth inhibition ratio (%)
Fc1ccc([C@]2(Cn3cncn3)O[C@H]2c2ccccc2Cl)cc1 (racemic) [Epoxiconazole, epoxyconazole] | 24
Cc1cc(C(=O)Nc2cccc(C(C)C)c2)c(C(F)(F)F)o1 [Compound A, 3′-isopropyl-5-methyl-2-trifluoromethylfuran-3-carboxylic acid anilide] | 49
Cc1cc(C(=O)Nc2cccc(OC(C)C)c2)c(C(F)(F)F)o1 [Compound B, 3′-isopropoxy-5-methyl-2-trifluoromethylfuran-3-carboxylic acid anilide] | 44
FC(F)C(F)(F)OCC(Cn1cncn1)c1ccc(Cl)cc1Cl (centres unmarked) [Tetraconazole, tetraconazole] | 25
CC(C1CC1)C(O)(Cn1cncn1)c1ccc(Cl)cc1 (centres unmarked) [cyproconazole] | 33
